In one series the test system is male Sprague-Dawley rats. The series is described as follows: Induction of penile erections in male rats. The series is classed as in vivo, rat. Conditions: 3 μg/kg intravenous; male rats observed 30 minutes. How it is done: Male Sprague-Dawley rats weighing 200-250 g were kept on a 12 hour on/off light cycle with food and water ad libitum. All behavioral studies were performed between 10 a.m. and 5 p.m. Groups of 6 rats were treated with peptides at a variety of doses, primarily 3 μg/kg, via intravenous administration. Immediately after administration, rats were placed into individual polystyrene cages (27 cm long, 16 cm wide, and 25 cm high) for behavioral observation. […] Using the above procedure, the mean number of penile erections for each rat on intravenous administration of 3 μg/kg was determined as shown on Table 2.

The target in series [1] is T1, hMC4-R (Homo sapiens, UniProt P32245).
T1 construct: expressed in transfected cells; whole cells for cAMP
The series is described as follows: Stimulation of intracellular cAMP production in transfected HEK-293 cells expressing hMC4-R. The series is classed as cell-based. As to the method: Functional assays to determine agonist or antagonist status of a cyclic peptide of the invention may be conducted by any means known in the art. In one method, a cAMP assay is performed. Human MC4-R cells are grown to confluence in 96 well plates (plating approximately 250,000 cells per well). Identical sets of cells in triplicate are treated with 0.2 mM isobutylmethylxanthine (IBMX) and the chosen concentration of the peptide or alternatively the peptide in the presence of 20 nM NDP-MSH. Cells similarly treated but with only 20 nM NDP-MSH serve as positive controls in a volume of 200 μL. A buffer blank, as a negative control, is also included. Incubation is for one hour at 37° C. after which the cells are lysed by the addition of 50 μL of a cell lysis buffer. Total cAMP accumulated in 250 μL of this solution is quantitated using a commercially available low pH cAMP assay kit (Amersham BioSciences) by the procedure specified by the kit supplier. Any peptide showing cAMP accumulation in the same range as or higher than the positive control (buffer blank in the presence of α-MSH) is considered to be an agonist. A peptide showing accumulation in the same range as the negative control (buffer blank in the absence of α-MSH) is ineffective at the test concentration if the result is similar to the positive control where α-MSH is also present in the assay. A peptide showing accumulation in the same range as the negative control is considered to be an antagonist if there is inhibition in cAMP when α-MSH is present in the assay. Similar methods may be employed for MC3-R, using MC3-R cells.
For orientation: Cyclic AMP is a second messenger, typically raised through Gs and lowered through Gi signalling.

For a further series, the target named is T2, hMC5-R (Homo sapiens, UniProt P33032).
T2 construct: expressed in transfected cells; host or cells: HEK 293 cells (membranes)
The series is described as follows: Competitive inhibition binding assay with 125I-NDP-MSH, MC5-R. Conditions: 1 μM peptide, HEK 293 human MC5, read-out: Percent Inhibition At 1 μM concentration MC5-R.

Series [2] deals with MC1-R (B16-F1 mouse melanoma cells) (Mus musculus, UniProt Q01727). The series is described as follows: Competitive inhibition binding assay with 125I-NDP-MSH, MC1-R. The following applies: 1 μM peptide, B16-F1 mouse melanoma membranes, read-out: Percent Inhibition At 1 μM concentration MC1-R.
Description: Each assay was conducted in triplicate.
(§1) B16-F1 mouse melanoma cells were used as the source of MC1 receptors; HEK 293 cells, transfected with human melanocortin receptor sequences, were used as the source of MC3, MC4 and MC5 receptors.
For series [3], the target named is T1, hMC4-R. Nature of the series: Competitive inhibition binding assay with 125I-NDP-MSH, MC4-R. The following applies: 1 μM peptide, HEK 293 human MC4, read-out: Percent Inhibition At 1 μM concentration MC4-R.
Description: Each assay was conducted in triplicate.
as §1
The target of a further series is T3, hMC3-R (Homo sapiens, UniProt P41968).
T3 construct: expressed in transfected cells; host or cells: HEK 293 cells (membranes)
The series is described as follows: Competitive inhibition binding assay with 125I-NDP-MSH, MC3-R. Conditions: 1 μM peptide, HEK 293 human MC3, read-out: Percent Inhibition At 1 μM concentration MC3-R.

Series [4] has as its system men with psychogenic erectile dysfunction. The following applies: subcutaneous, 0.025 to 0.157 mg/kg, cited from earlier work.

T1 sequence (P32245 whole entry): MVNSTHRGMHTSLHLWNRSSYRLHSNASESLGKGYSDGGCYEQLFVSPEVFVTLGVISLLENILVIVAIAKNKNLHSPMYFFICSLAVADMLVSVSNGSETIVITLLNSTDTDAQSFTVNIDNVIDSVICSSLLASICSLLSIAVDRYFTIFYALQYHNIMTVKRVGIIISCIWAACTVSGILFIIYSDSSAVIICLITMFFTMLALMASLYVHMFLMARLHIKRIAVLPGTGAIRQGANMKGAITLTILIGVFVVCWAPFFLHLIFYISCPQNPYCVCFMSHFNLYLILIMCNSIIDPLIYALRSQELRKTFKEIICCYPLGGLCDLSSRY
T3 sequence (P41968 whole entry): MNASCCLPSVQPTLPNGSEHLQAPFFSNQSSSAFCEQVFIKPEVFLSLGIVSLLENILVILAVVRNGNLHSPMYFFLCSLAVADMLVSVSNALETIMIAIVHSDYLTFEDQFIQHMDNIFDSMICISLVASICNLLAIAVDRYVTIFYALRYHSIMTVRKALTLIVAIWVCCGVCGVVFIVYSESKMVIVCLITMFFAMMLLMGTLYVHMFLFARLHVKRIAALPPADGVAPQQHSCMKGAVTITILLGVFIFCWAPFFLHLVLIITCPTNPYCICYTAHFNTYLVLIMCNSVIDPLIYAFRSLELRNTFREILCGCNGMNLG
T2 sequence (P33032 whole entry): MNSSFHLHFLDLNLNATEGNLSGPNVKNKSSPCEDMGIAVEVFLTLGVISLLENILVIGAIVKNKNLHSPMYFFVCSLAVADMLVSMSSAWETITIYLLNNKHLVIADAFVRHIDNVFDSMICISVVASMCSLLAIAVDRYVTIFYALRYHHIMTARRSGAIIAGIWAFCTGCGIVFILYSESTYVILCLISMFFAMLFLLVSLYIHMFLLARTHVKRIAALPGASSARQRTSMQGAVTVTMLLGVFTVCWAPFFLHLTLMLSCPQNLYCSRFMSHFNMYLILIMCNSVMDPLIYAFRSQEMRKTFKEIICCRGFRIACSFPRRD
Chain of MC1-R (B16-F1 mouse melanoma cells) (Q01727 whole entry): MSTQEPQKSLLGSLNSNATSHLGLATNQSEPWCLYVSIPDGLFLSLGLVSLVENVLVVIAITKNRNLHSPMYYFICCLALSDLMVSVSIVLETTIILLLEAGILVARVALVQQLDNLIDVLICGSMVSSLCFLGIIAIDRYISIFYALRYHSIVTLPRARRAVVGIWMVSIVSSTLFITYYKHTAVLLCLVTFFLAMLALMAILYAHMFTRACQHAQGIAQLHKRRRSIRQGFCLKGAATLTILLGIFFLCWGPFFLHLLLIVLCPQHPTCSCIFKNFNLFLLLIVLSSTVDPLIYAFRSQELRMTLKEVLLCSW
Description for hMC3-R: Each assay was conducted in triplicate.
as §1
Description for hMC5-R: Each assay was conducted in triplicate.
as §1

Consider “Ac-Nle-cyclo(-Asp-His-D-Phe(4-Cl)-Arg-Trp-Lys)-OH”, for which the “Mean PE/Rat (mean number of penile erections for each rat)” value (“Mean PE/Rat” for short) in the series on male Sprague-Dawley rats is 0.33.
Same read-out and setting: the figure for “Ac-Nle-cyclo(-Asp-His-D-Phe-Arg-D-Trp-Lys)-OH” is 0.83; for “Ahx-cyclo(-Asp-His-D-Phe-Arg-Trp-Lys)-OH” it is 0.33; for “Ac-Nle-cyclo(-Asp-His-D-Phe-Arg-Nal 1-Lys)-OH” it is 0.33.
Same read-out and setting: the figure for “Ac-Nle-cyclo(-Asp-D-His-D-Phe-Arg-Trp-Lys)-OH” is 0.33; for “Ac-Nle-cyclo(-Asp-Tyr-D-Phe-Arg-Trp-Lys)-OH” it is 0.67.
Consider “Ac-Nle-cyclo(-Asp-His-Phe-Arg-Trp-Lys)-OH”, for which, at hMC4-R [1], the “Functional Activity at MC4-R” value was “Inactive”.
Regarding “Ac-Nle-cyclo(-Asp-Phe-D-Phe-Arg-Trp-Lys)-OH”, the “Mean PE/Rat” value in the series on male Sprague-Dawley rats turned out to be 0.33.
Consider `CCCC[C@H](NC(C)=O)C(=O)N[C@H]1CC(=O)NCCCC[C@@H](C(=O)O)NC(=O)[C@H](Cc2c[nH]c3ccccc23)NC(=O)[C@H](CCCCN)NC(=O)[C@@H](Cc2ccccc2)NC(=O)[C@H](Cc2c[nH]cn2)NC1=O` [Ac-Nle-cyclo(-Asp-His-D-Phe-Lys-Trp-Lys)-OH], for which the “Mean PE/Rat” value in the series on male Sprague-Dawley rats is 1.33. For the same molecule, the inhibition at 1 µM on hMC5-R was 17%; in series [2], 86%; on hMC4-R [3], 46%; at hMC3-R it was 8%. Also, at hMC4-R [1], the “Functional Activity at MC4-R” value is given as “Agonist”.
As for “Ac-Nle-cyclo(-Asp-Trp-D-Phe-Arg-Trp-Lys)-OH”, the “Mean PE/Rat” value in the series on male Sprague-Dawley rats worked out at 0.5.
Take “cyclo(-Succ-His-D-Phe-Arg-Trp-Lys)-OH (FRWK; cyclic succinyl, His, D-residue prefix; printed: Phe-Arg-Trp-Lys)”: in the series with hMC4-R [1], the “Functional Activity at MC4-R” value is “Agonist”.
For Melanotan-II, the transient side effects result in series [4] was “nausea, stretching and yawning, and decreased appetite”. Moreover, in series [4] (placebo 3.0 minutes, p=0.0045), the “mean duration of tip rigidity greater than 80%” value is 38 min.

Values taken from patent US7473760B2, “Cyclic peptide compositions for treatment of sexual dysfunction” (Palatin Technologies, Inc., priority 1999, dated 2009).
